Data from ChEMBL document CHEMBL5537177, “Discovery of Potent Antimalarial Type II Kinase Inhibitors with Selectivity over Human Kinases” (J Med Chem, 2024).
Activity calls are given as the source filed them. The rule behind the calls is not given here.

What was measured:
Plasmodium falciparum [1] = assay: Antimalarial activity against synchronized early ring stage Plasmodium falciparum 3D7 (MRA-152) clinical isolate assessed as decrease in parasite survival at ring stage at 10 times EC50 treated for 6 hrs followed by compound removal measured after 72 hrs by geimsa staining based microscopy; assay type: functional, organism-based
Plasmodium falciparum [2] = assay: Antimalarial activity against artemisinin/piperaquine-sensitive synchronized early ring stage Plasmodium falciparum IPC 5188 (MRA-1239) clinical isolate assessed as decrease in parasite survival at ring stage at 10 times EC50 treated for 6 to 48 hrs followed by compound removal measured after 72 hrs by geimsa staining based microscopy; assay type: functional, organism-based
Plasmodium falciparum [3] = assay: Antimalarial activity against synchronized early ring stage Plasmodium falciparum 3D7 (MRA-152) clinical isolate assessed as decrease in parasite survival at ring stage at 10 times EC50 treated for 48 hrs followed by compound removal measured after 72 hrs by geimsa staining based microscopy; assay type: functional, organism-based
Plasmodium falciparum [4] = assay: Antimalarial activity against synchronized Plasmodium falciparum 3D7 assessed as reduction in parasite growth at early asexual stage treated 6 hrs post-invasion measured after 72 hrs by SYBR green I dye based microscopy; assay type: functional, organism-based
Plasmodium berghei [5] = assay: Antimalarial activity against […] Plasmodium berghei sporozoites expressing GFP-Luc SMcon infected in Swiss Webster mouse assessed as decrease in recrudescence at 15 to 50 mg/kg, iv pretreated for 6 hrs followed by parasite infection measured after 90 days post-infection by SYBR Green I dye based flow cytometry; assay type: functional, organism-based; conditions: dose 15-50 mg/kg, time 90.25 day
Plasmodium falciparum [6] = assay: Resistance index, ratio of EC50 for multidrug-resistant Plasmodium falciparum Dd2 at ring stage infected in A+ erythrocytes to EC50 for drug-sensitive Plasmodium falciparum 3D7 at ring stage infected in A+ erythrocytes; assay type: organism-based; conditions: human
[7] = Volume of distribution at steady state in mouse at 2 mg/kg, iv; assay type: ADME, organism-based; conditions: in vivo, read-out: Vdss
[8] = Selectivity index, ratio of EC50 for human MCF7 cells to EC50 for multidrug-resistant Plasmodium falciparum Dd2 at ring stage infected in A+ erythrocytes; assay type: toxicity, cell-based; conditions: read-out: Ratio EC50
Plasmodium falciparum [9] = assay: Resistance development in blood-stage Plasmodium falciparum Dd2-B2 assessed as drug irresistibility at 1 to 2 times EC50 measured till death; assay type: functional, organism-based
HepG2 = assay: Cytotoxicity against human HepG2 cells assessed as reduction in cell viability incubated for 48 hrs by MTS assay; assay type: toxicity, cell-based; conditions: hepg2
Plasmodium falciparum [10] = assay: Parasiticidal activity against asynchronous blood-stage Plasmodium falciparum Dd2 at 10 times EC50 treated for 12 hrs followed by compound washout and measured for 4 days by flow cytometry; assay type: functional, organism-based
Plasmodium berghei [11] = assay: Antimalarial activity against […] Plasmodium berghei sporozoites expressing GFP-Luc SMcon infected in Swiss Webster mouse assessed as reduction in parasitemia at 15 to 50 mg/kg, iv pretreated for 6 hrs followed by parasite infection measured for 2 to 16 days post-infection by SYBR Green I dye based flow cytometry; assay type: functional, organism-based; conditions: dose 15-50 mg/kg, time 2.25-16.25 day
Plasmodium falciparum [12] = assay: Antimalarial activity against synchronous blood-stage Plasmodium falciparum 3D7 assessed as parasite clearance time at 10 times EC50 treated every 24 hrs for 120 hrs followed by compound washout and subsequent addition of RBCs measured after 21 days by parasite reduction ratio assay; assay type: functional
Plasmodium falciparum [13] = assay: Antimalarial activity against synchronized Plasmodium falciparum Dd2 assessed as absence of rightward shift of YOYO-1 peak at 5 times EC50 treated 6 hrs post-invasion measured after 54 hrs post-invasion by flow cytometry; assay type: functional, organism-based; conditions: time 48.0 hrs
[14] = Clearance in mouse at 10 mg/kg, po; assay type: ADME, organism-based; conditions: in vivo
[15] = Metabolic stability in mouse liver microsomes assessed as half life; assay type: ADME, Liver cells
Plasmodium falciparum [16] = assay: Antiplasmodial activity against multidrug-resistant Plasmodium falciparum Dd2 at ring stage infected in A+ erythrocytes assessed as parasite growth reduction incubated for 72 hrs by SYBR Green I dye based analysis; assay type: functional, organism-based; conditions: Dd2, Erythrocyte
Plasmodium falciparum [17] = assay: Antimalarial activity against synchronized Plasmodium falciparum Dd2 assessed as reduction in parasite growth at early asexual stage treated 16 hrs post-invasion measured after 72 hrs by SYBR green I dye based microscopy; assay type: functional, organism-based
Plasmodium falciparum [18] = assay: Antimalarial activity against synchronized Plasmodium falciparum Dd2 assessed as delay in rightward shift of YOYO-1 peak at 5 times EC50 treated 18 to 30 hrs post-invasion measured after 54 hrs post-invasion by flow cytometry; assay type: functional, organism-based; conditions: time 24-36 hrs
Plasmodium falciparum [19] = assay: Antimalarial activity against artemisinin/piperaquine-resistant synchronized early ring stage Plasmodium falciparum IPC 6261 (MRA-1284) clinical isolate assessed as decrease in parasite survival at ring stage at 10 times EC50 treated for 48 hrs followed by compound removal measured after 72 hrs by geimsa staining based microscopy; assay type: functional, organism-based
Plasmodium falciparum [20] = assay: Antimalarial activity against artemisinin/piperaquine-resistant synchronized early ring stage Plasmodium falciparum IPC 6261 (MRA-1284) clinical isolate assessed as decrease in parasite survival at ring stage at 10 times EC50 treated for 6 hrs followed by compound removal measured after 72 hrs by geimsa staining based microscopy; assay type: functional, organism-based
Plasmodium falciparum [21] = assay: Antiplasmodial activity against drug-sensitive Plasmodium falciparum 3D7 at ring stage infected in A+ erythrocytes assessed as parasite growth reduction incubated for 72 hrs by SYBR Green I dye based analysis; assay type: functional, organism-based; conditions: 3D7, Erythrocyte
Plasmodium falciparum [22] = assay: Antimalarial activity against ring-stage Plasmodium falciparum 3D7 infected in O+ RBCs assessed as reduction in parasitemia incubated for 72 hrs by SYBR green I dye based analysis; assay type: functional, organism-based, RBC; conditions: 3D7, Erythrocyte
Plasmodium falciparum [23] = assay: Antimalarial activity against synchronized Plasmodium falciparum Dd2 assessed as parasite growth inhibition at ring stage at 5 times EC50 treated 6 hrs post-invasion measured after 54 hrs post-invasion by Geimsa staining based microscopy; assay type: functional, organism-based; conditions: time 48.0 hrs
Plasmodium falciparum [24] = assay: Antimalarial activity against artemisinin/piperaquine-resistant synchronized early ring stage Plasmodium falciparum IPC 6261 (MRA-1284) clinical isolate assessed as decrease in parasite survival at ring stage at 10 times EC50 treated for 6 to 48 hrs followed by compound removal measured after 72 hrs by geimsa staining based microscopy; assay type: functional, organism-based
MCF7 = assay: Cytotoxicity against human MCF7 cells assessed as reduction in cell viability incubated for 48 hrs by MTS assay; assay type: toxicity, cell-based; conditions: mcf7
[25] = Tmax in mouse at 10 mg/kg, po; assay type: ADME, organism-based; conditions: in vivo
Plasmodium falciparum [26] = assay: Antimalarial activity against synchronized Plasmodium falciparum Dd2 assessed as aberrant morphology of parasites at 5 times EC50 treated 42 hrs post-invasion measured after 54 hrs post-invasion by Geimsa staining based microscopy; assay type: functional, organism-based; conditions: time 12.0 hrs
[27] = Half life in mouse at 2 mg/kg, iv; assay type: ADME, organism-based; conditions: in vivo
[28] = Clearance in mouse at 2 mg/kg, iv; assay type: ADME, organism-based; conditions: in vivo
[29] = AUC (infinity) in mouse at 10 mg/kg, po; assay type: ADME, organism-based; conditions: in vivo
Plasmodium falciparum [30] = assay: Antimalarial activity against ring-stage Plasmodium falciparum Dd2 infected in O+ RBCs assessed as reduction in parasitemia incubated for 72 hrs by SYBR green I dye based analysis; assay type: functional, organism-based, RBC; conditions: Dd2, Erythrocyte

In the case of `CCN1CCN(Cc2ccc(NC(=O)c3cc(Cl)cc(NC(=O)c4cncc(-c5cccs5)c4)c3)cc2C(F)(F)F)CC1`, the Activity (Plasmodium falciparum [1]) is reported as “inactive”, the EC50 (Plasmodium falciparum [2]) is reported as 73.7 nM and the Activity (Plasmodium falciparum [3]) is reported as “Active”. For the same molecule, the EC50 (Plasmodium falciparum [4]) was 29.6 nM, the Activity (Plasmodium berghei [5]) was “Active” and the “Ratio EC50” value (Plasmodium falciparum [6]) was 1.4. The Vd [7] was 0.84 L/kg, the selectivity ratio [8] was 61 and the Activity (Plasmodium falciparum [9]) was “Active”. For the same molecule, the EC50 (HepG2) was 2590 nM, the Activity (Plasmodium falciparum [10]) was “Active” and the Activity (Plasmodium berghei [11]) was “Active”. The T99.9% (Plasmodium falciparum [12]) was under 32 h, the Activity (Plasmodium falciparum [13]) was “Active” and the CL/F [14] was 109 mL/min/kg. It also gave a t1/2 [15] of 1.32 h, an EC50 (Plasmodium falciparum [16]) of 58 nM and an EC50 (Plasmodium falciparum [17]) of 37.2 nM. The Activity (Plasmodium falciparum [18]) was “Active”, the Activity (Plasmodium falciparum [19]) was “Active” and the Activity (Plasmodium falciparum [20]) was “inactive”. For the same molecule, the EC50 (Plasmodium falciparum [21]) was 42 nM, the EC50 (Plasmodium falciparum [22]) was 10.2 nM and the inhibition (Plasmodium falciparum [23]) was “Active”. For the same molecule, the EC50 (Plasmodium falciparum [24]) was 108 nM, the EC50 (MCF7) was 3510 nM and the Tmax [25] was 4.67 h. For the same molecule, the Activity (Plasmodium falciparum [26]) was “Active”, the half-life [27] was 4.16 h and the clearance [28] was 4.3 mL/min/kg. The AUC(0-inf) [29] was 1640 ng·h/mL and the EC50 (Plasmodium falciparum [30]) was 22.9 nM.
